The target of one assay is human TLR9 (Homo sapiens (Human), UniProt Q9NR96). Description: TLR9 inhibition reporter assay (HEK-Blue SEAP reporter, ODN2006 stimulation).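 Further: SEAP reporter under IFN-β minimal promoter with five NF-κB and AP-1 sites, 22 h incubation, compounds 0.05 nM–50 µM, inhibition relative to agonist plus DMSO versus known inhibitor.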
The target of another assay is human TLR7 (Homo sapiens (Human), UniProt Q9NYK1). Kind of assay: TLR7 inhibition reporter assay (HEK-Blue SEAP reporter, gardiquimod stimulation). Format: cell-based. As to conditions: HEK-Blue cells overexpressing human TLR7, gardiquimod 7.5 μM.
human TLR7, sequence (Q9NYK1 27-1049): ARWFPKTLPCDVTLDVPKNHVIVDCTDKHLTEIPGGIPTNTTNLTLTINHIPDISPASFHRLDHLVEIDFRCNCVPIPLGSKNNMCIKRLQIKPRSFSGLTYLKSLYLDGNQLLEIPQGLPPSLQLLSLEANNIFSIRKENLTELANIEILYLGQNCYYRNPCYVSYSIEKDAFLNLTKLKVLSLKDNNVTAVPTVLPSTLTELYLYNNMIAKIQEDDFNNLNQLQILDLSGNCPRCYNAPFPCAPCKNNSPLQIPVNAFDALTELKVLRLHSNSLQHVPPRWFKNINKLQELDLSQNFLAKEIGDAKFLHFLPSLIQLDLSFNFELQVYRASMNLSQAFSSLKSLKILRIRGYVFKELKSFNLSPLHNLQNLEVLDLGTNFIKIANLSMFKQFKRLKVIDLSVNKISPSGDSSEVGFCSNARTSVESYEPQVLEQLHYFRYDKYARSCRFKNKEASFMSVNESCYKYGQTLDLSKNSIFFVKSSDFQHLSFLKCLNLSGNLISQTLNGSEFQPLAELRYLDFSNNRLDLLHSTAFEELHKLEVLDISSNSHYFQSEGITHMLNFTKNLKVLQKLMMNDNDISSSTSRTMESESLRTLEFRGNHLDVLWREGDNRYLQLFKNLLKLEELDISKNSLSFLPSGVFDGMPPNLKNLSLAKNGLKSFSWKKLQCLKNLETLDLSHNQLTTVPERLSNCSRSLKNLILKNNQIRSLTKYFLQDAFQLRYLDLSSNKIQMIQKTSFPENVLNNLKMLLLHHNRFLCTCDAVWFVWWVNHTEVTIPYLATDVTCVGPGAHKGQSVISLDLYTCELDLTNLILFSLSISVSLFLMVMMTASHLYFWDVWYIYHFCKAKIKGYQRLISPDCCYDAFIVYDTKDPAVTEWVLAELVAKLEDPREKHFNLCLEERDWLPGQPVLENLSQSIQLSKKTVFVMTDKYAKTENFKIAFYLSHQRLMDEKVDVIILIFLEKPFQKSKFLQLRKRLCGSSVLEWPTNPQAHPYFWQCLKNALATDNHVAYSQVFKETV
A further assay concerns the target human TLR8 (Homo sapiens (Human), UniProt Q9NR97). Kind of assay: TLR8 inhibition reporter assay (HEK-Blue SEAP reporter, R848 stimulation).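 Further: SEAP driven by IFN-β minimal promoter with NF-κB and AP-1 sites, 22 h incubation, compounds 0.05 nM–50 µM, inhibition scaled between agonist plus DMSO and reference inhibitor wells.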
Setting [1] is: read-out: TLR9 IC50, HEK-Blue cells overexpressing human TLR9, ODN2006 5 nM, SEAP reporter.
The mark [2] stands for this setting: read-out: TLR8 IC50, HEK-Blue cells overexpressing human TLR8, R848 15.9 μM, SEAP reporter.

Where two headings read alike, the source gives them in different places.

human TLR8, sequence (Q9NR97 27-1041): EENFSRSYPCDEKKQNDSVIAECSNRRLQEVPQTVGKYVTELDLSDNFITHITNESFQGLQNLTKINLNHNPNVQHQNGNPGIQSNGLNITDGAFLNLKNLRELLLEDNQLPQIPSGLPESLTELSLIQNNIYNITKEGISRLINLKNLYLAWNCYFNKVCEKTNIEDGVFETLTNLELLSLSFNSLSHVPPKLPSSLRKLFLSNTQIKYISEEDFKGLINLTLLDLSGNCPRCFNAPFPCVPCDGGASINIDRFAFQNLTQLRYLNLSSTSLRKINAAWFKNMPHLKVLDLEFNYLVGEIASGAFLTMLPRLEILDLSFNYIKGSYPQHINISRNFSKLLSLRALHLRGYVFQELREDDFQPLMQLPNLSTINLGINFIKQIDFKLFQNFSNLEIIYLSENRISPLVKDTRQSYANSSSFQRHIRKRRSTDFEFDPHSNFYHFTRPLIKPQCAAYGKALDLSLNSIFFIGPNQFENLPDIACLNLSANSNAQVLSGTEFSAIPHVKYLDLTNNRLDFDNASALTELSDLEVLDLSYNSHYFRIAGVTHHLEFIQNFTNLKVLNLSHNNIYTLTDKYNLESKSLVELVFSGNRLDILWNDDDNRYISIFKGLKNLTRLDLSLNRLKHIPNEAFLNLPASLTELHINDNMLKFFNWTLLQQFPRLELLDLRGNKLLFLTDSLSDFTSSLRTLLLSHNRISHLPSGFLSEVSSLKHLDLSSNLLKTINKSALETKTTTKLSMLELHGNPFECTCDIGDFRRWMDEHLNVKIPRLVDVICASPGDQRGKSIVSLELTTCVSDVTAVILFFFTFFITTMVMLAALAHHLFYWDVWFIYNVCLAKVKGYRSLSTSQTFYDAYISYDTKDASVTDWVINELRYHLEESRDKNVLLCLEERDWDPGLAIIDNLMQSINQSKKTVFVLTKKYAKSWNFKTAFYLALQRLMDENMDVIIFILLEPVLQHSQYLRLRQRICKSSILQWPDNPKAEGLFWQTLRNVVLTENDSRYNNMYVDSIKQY
human TLR9, sequence (Q9NR96 26-1032): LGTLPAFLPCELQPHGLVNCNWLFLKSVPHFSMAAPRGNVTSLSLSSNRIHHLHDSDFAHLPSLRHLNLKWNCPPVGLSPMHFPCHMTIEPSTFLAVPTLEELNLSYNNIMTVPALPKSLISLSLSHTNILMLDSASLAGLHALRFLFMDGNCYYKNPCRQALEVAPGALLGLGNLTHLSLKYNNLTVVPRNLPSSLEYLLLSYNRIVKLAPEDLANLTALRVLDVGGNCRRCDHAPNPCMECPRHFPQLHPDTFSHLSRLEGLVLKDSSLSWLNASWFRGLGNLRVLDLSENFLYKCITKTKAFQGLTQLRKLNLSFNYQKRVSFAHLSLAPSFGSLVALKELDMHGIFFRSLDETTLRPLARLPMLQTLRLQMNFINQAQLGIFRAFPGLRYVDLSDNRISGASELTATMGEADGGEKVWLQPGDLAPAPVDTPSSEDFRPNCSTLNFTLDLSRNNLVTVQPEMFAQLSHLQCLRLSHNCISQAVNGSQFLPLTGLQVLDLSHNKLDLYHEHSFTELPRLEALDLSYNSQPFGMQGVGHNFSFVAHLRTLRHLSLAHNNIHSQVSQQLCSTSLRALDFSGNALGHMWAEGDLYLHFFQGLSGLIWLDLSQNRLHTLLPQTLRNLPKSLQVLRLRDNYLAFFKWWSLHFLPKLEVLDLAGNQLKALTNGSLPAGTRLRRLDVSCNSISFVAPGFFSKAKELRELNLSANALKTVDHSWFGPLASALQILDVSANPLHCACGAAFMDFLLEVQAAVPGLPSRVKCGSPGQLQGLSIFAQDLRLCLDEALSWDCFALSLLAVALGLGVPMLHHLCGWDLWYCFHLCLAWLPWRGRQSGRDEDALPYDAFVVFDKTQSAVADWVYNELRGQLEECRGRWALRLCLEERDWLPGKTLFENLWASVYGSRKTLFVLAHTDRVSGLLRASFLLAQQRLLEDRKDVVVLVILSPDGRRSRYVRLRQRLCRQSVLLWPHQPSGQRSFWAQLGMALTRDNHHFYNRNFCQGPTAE
Description for human TLR9: HEK-Blue™-cells (Invivogen) overexpressing human TLR7, TLR8 or TLR9 receptors were used for screening inhibitors of these receptors using an inducible SEAP (secreted embryonic alkaline phosphatase) reporter gene under the control of the IFN-β minimal promoter fused to five NF-κB and AP-1-binding sites. Briefly, cells are seeded into Greiner 384 well plates (15000 cells per well for TLR7, 20,000 for TLR8 and 25,000 for TLR9) and then treated with test compounds in DMSO to yield a final dose response concentration range of 0.05 nM-50 μM. After a 30 minute compound pre-treatment at room temperature, the cells are then stimulated with a TLR7 ligand (gardiquimod at a final concentration of 7.5 μM), TLR8 ligand (R848 at a final concentration of 15.9 μM) or TLR9 ligand (ODN2006 at a final concentration of 5 nM) to activate NF-κB and AP-1 which induce the production of SEAP. After a 22 hour incubation at 37° C., 5% CO2, SEAP levels are determined with the addition of HEK-Blue™ Detection reagent (Invivogen), a cell culture medium that allows for detection of SEAP, according to manufacturer's specifications.

In general, IC50 refers to the concentration that inhibits the measured activity by half. With `Cc1cc(-c2[nH]c3ccc(C(C)C(=O)NC4CN5CCC4CC5)cc3c2C(C)C)ccn1` (stereo not drawn) [Example 191, 2-(3-isopropyl-2-(2-methylpyridin-4-yl)-1H-indol-5-yl)-N-(quinuclidin-3-yl)propanamide], the half-inhibitory concentration (IC50) on human TLR9 (setting [1]) came out at 1290 nM; at human TLR7 it was 175 nM; at human TLR8 (setting [2]) it was 209 nM.
As to `Cc1cc(-c2[nH]c3ccc(C(C)C(=O)NC4CN5CCC4CC5)cc3c2C(C)C)ccn1` (stereo not drawn) [Example 192, 2-(3-isopropyl-2-(2-methylpyridin-4-yl)-1H-indol-5-yl)-N-(quinuclidin-3-yl)propanamide], the IC50 at human TLR9 (setting [1]) was found to be 1530 nM; at human TLR7, 71 nM; on human TLR8 (setting [2]) it was 142 nM.
Consider `Cc1cc(-c2[nH]c3ccc(C(C)C(=O)NC4CCNCC4)cc3c2C(C)C)ccn1` (stereo not drawn) [Example 193, 2-(3-isopropyl-2-(2-methylpyridin-4-yl)-1H-indol-5-yl)-N-(piperidin-4-yl)propanamide], for which the values for the IC50 on human TLR9 (setting [1]), against human TLR7 and at human TLR8 (setting [2]) were 3370 nM, 203 nM and 147 nM, respectively.
Take `Cc1cc(-c2[nH]c3ccc(C(C)C(=O)NC4CCN(C(C)C)CC4)cc3c2C(C)C)ccn1` (stereo not drawn) [Example 194, 2-(3-isopropyl-2-(2-methylpyridin-4-yl)-1H-indol-5-yl)-N-(1-isopropylpiperidin-4-yl)propanamide]: the IC50 was determined as 3890 nM against human TLR9, 152 nM at human TLR7 and 106 nM at human TLR8.
In the case of `Cc1cc(-c2[nH]c3ccc(C(C)C(=O)N[C@@H]4CCCNC4)cc3c2C(C)C)ccn1` (stereo partly drawn) [Example 195, 2-(3-isopropyl-2-(2-methylpyridin-4-yl)-1H-indol-5-yl)-N—((R)-piperidin-3-yl)propanamide], the IC50 is 912 nM at human TLR9 (setting [1]), 273 nM on human TLR7 and 75 nM at human TLR8 (setting [2]).
For the compound `Cc1cc(-c2[nH]c3ccc(C(C)C(=O)N[C@@H]4CCCNC4)cc3c2C(C)C)ccn1` (stereo partly drawn) [Example 196, 2-(3-isopropyl-2-(2-methylpyridin-4-yl)-1H-indol-5-yl)-N—((R)-piperidin-3-yl)propanamide], the IC50 on human TLR9 (setting [1]) was 866 nM; on human TLR7, 51 nM; at human TLR8 (setting [2]), 88 nM.
Regarding `Cc1cc(-c2[nH]c3ccc(C(C)C(=O)N4CC5CN(C)CC5C4)cc3c2C(C)C)ccn1` (stereo not drawn) [Example 197, 2-(3-isopropyl-2-(2-methylpyridin-4-yl)-1H-indol-5-yl)-1-(5-methylhexahydropyrrolo[3,4-c]pyrrol-2(1H)-yl)propan-1-one], the IC50 on human TLR9 (setting [1]) came to 3290 nM; against human TLR7, 200 nM; on human TLR8 (setting [2]) it was 130 nM.
As to `Cc1cc(-c2[nH]c3ccc(C(C)C(=O)N4CCC5(CCN(C)C5)CC4)cc3c2C(C)C)ccn1` (stereo not drawn) [Example 198, 2-(3-isopropyl-2-(2-methylpyridin-4-yl)-1H-indol-5-yl)-1-(2-methyl-2,8-diazaspiro[4.5]decan-8-yl)propan-1-one], the figures for the IC50 on human TLR9 (setting [1]), on human TLR7 and on human TLR8 (setting [2]) were 1310 nM, 46 nM and 72 nM, respectively.
On to `Cc1cc(-c2[nH]c3ccc(C(C)C(=O)N4CCC(CN)C4)cc3c2C(C)C)ccn1` (stereo not drawn) [Example 199, 1-(3-(aminomethyl)pyrrolidin-1-yl)-2-(3-isopropyl-2-(2-methylpyridin-4-yl)-1H-indol-5-yl)propan-1-one], for which the figures for the half-maximal inhibitory concentration (IC50) at human TLR9 (setting [1]), at human TLR7 and on human TLR8 (setting [2]) were 1210 nM, 443 nM and 303 nM, respectively.
In the case of `Cc1cc(-c2[nH]c3ccc(C(C)C(=O)N4CCCC5(CCCCC5N)C4)cc3c2C(C)C)ccn1` (stereo not drawn) [Example 200, 1-(7-amino-2-azaspiro[5.5]undecan-2-yl)-2-(3-isopropyl-2-(2-methylpyridin-4-yl)-1H-indol-5-yl)propan-1-one], the IC50 on human TLR9 (read-out: TLR9 IC50, HEK-Blue cells overexpressing human TLR9, ODN2006 5 nM, SEAP reporter, listed as 700) came to 690 nM; against human TLR7 (listed as 700), 12 nM; on human TLR8 (read-out: TLR8 IC50, HEK-Blue cells overexpressing human TLR8, R848 15.9 μM, SEAP reporter, listed as 700), 69 nM.
As for `Cc1cc(-c2[nH]c3ccc(C(C)C(=O)N4CCCC5(CCCCC5N)C4)cc3c2C(C)C)ccn1` (stereo not drawn) [Example 201, 1-(7-amino-2-azaspiro[5.5]undecan-2-yl)-2-(3-isopropyl-2-(2-methylpyridin-4-yl)-1H-indol-5-yl)propan-1-one], the values for the half-maximal inhibitory concentration (IC50) at human TLR9 (setting [1]), on human TLR7 and on human TLR8 (setting [2]) were 1870 nM, 74 nM and 70 nM, respectively.
With `Cc1cc(-c2[nH]c3ccc(C(C)C(=O)N4CCC(CN)CC4)cc3c2C(C)C)ccn1` (stereo not drawn) [Example 202, 1-(4-(aminomethyl)piperidin-1-yl)-2-(3-isopropyl-2-(2-methylpyridin-4-yl)-1H-indol-5-yl)propan-1-one], the half-maximal inhibitory concentration (IC50) is 1350 nM on human TLR9 (setting [1]), 174 nM at human TLR7 and 534 nM on human TLR8 (setting [2]).
As to `Cc1cc(-c2[nH]c3ccc(C(C)C(=O)N4CCC(N)CC4)cc3c2C(C)C)ccn1` (stereo not drawn) [Example 203, 1-(4-aminopiperidin-1-yl)-2-(3-isopropyl-2-(2-methylpyridin-4-yl)-1H-indol-5-yl)propan-1-one], the IC50 at human TLR9 (setting [1]) came to 746 nM; against human TLR7 it was 296 nM; at human TLR8 (setting [2]) it was 365 nM.
The corresponding values for `Cc1cc(-c2[nH]c3ccc(C(C)C(=O)N4CCC[C@H](N)C4)cc3c2C(C)C)ccn1` (stereo partly drawn) [Example 204, 1-((S)-3-aminopiperidin-1-yl)-2-(3-isopropyl-2-(2-methylpyridin-4-yl)-1H-indol-5-yl)propan-1-one] are 939 nM, 74 nM and 119 nM.
The corresponding values for `Cc1cc(-c2[nH]c3ccc(C(C)C(=O)N4CCCC(CN)C4)cc3c2C(C)C)ccn1` (stereo not drawn) [Example 205, 1-(3-(aminomethyl)piperidin-1-yl)-2-(3-isopropyl-2-(2-methylpyridin-4-yl)-1H-indol-5-yl)propan-1-one] are 2460 nM, 277 nM and 341 nM.
For the compound `Cc1cc(-c2[nH]c3ccc(C(C)C(=O)N4CCCC(CCN)C4)cc3c2C(C)C)ccn1` (stereo not drawn) [Example 206, 1-(3-(2-aminoethyl)piperidin-1-yl)-2-(3-isopropyl-2-(2-methylpyridin-4-yl)-1H-indol-5-yl)propan-1-one], the IC50 came out at 686 nM at human TLR9 (setting [1]), 517 nM against human TLR7 and 126 nM at human TLR8 (setting [2]).
Turning to `Cc1cc(-c2[nH]c3ccc(C(C)C(=O)N(C)C4CCNCC4)cc3c2C(C)C)ccn1` (stereo not drawn) [Example 207, 2-(3-isopropyl-2-(2-methylpyridin-4-yl)-1H-indol-5-yl)-N-methyl-N-(piperidin-4-yl)propanamide], the IC50 at human TLR9 (setting [1]) is 396 nM; against human TLR7 it was 172 nM; at human TLR8 (setting [2]), 156 nM.
The like results for `Cc1cc(-c2[nH]c3ccc(C(C)C(=O)NC[C@@H]4CCNC4)cc3c2C(C)C)ccn1` (stereo partly drawn) [Example 208, 2-(3-isopropyl-2-(2-methylpyridin-4-yl)-1H-indol-5-yl)-N—(((R)-pyrrolidin-3-yl)methyl)propanamide] were, in that order, 7310 nM, 1290 nM and 2570 nM.
Regarding `Cc1cc(-c2[nH]c3ccc(C(C)C(=O)N(C)C4CCCNC4)cc3c2C(C)C)ccn1` (stereo not drawn) [Example 209, 2-(3-isopropyl-2-(2-methylpyridin-4-yl)-1H-indol-5-yl)-N-methyl-N-(piperidin-3-yl)propanamide], the IC50 on human TLR9 (setting [1]) is 685 nM; against human TLR7 it was 103 nM; on human TLR8 (setting [2]), 96 nM.
For `Cc1cc(-c2[nH]c3ccc(C(C)C(=O)N(C)C4CCCNC4)cc3c2C(C)C)ccn1` (stereo not drawn) [Example 210, 2-(3-isopropyl-2-(2-methylpyridin-4-yl)-1H-indol-5-yl)-N-methyl-N-(piperidin-3-yl)propanamide], the IC50 at human TLR9 (setting [1]) amounted to 718 nM; on human TLR7 it was 280 nM; on human TLR8 (setting [2]), 210 nM.
The like results for `Cc1cc(-c2[nH]c3ccc(C(C)C(=O)N(C)C4CN5CCC4CC5)cc3c2C(C)C)ccn1` (stereo not drawn) [Example 211, 2-(3-isopropyl-2-(2-methylpyridin-4-yl)-1H-indol-5-yl)-N-methyl-N-(quinuclidin-3-yl)propanamide] were, in that order, 472 nM, 50 nM and 51 nM.
Consider `Cc1cc(-c2[nH]c3ccc(C(C)C(=O)NC[C@H]4CCNC4)cc3c2C(C)C)ccn1` (stereo partly drawn) [Example 212, 2-(3-isopropyl-2-(2-methylpyridin-4-yl)-1H-indol-5-yl)-N—(((S)-pyrrolidin-3-yl)methyl)propanamide], for which the IC50 at human TLR9 (setting [1]) turned out to be 5000 nM; on human TLR7, 821 nM; on human TLR8 (setting [2]), 1470 nM.
Take `Cc1cc(-c2[nH]c3ccc(C(C)C(=O)NCC4CCCNC4)cc3c2C(C)C)ccn1` (stereo not drawn) [Example 213, 2-(3-isopropyl-2-(2-methylpyridin-4-yl)-1H-indol-5-yl)-N-(piperidin-3-ylmethyl)propanamide]: the IC50 at human TLR9 (setting [1]) turned out to be 2640 nM; against human TLR7, 466 nM; on human TLR8 (setting [2]), 241 nM.
The like results for `Cc1cc(-c2[nH]c3ccc(C(C)C(=O)NC4C[C@H]5CC[C@@H](C4)N5C)cc3c2C(C)C)ccn1` (stereo partly drawn) [Example 214, 2-(3-isopropyl-2-(2-methylpyridin-4-yl)-1H-indol-5-yl)-N-((1R,5S)-8-methyl-8-azabicyclo[3.2.1]octan-3-yl)propanamide] were, in that order, 4670 nM, 107 nM and 167 nM.
Consider `Cc1cc(-c2[nH]c3ccc(C(C)C(=O)N[C@@H]4CCCC[C@H]4N)cc3c2C(C)C)ccn1` (stereo partly drawn) [Example 215, N-((1R,2R)-2-aminocyclohexyl)-2-(3-isopropyl-2-(2-methylpyridin-4-yl)-1H-indol-5-yl)propanamide], for which the IC50 at human TLR9 (setting [1]) came out at 1370 nM; on human TLR7 it was 148 nM; on human TLR8 (setting [2]), 174 nM.
